Source: US20220151935A1, “USE OF AMINO ACID BASED NUTRIENTS AND PHARMACEUTICAL COMPOSITION CONTAINING THE SAME” (priority 2018, published 2022)
Marks after values point to notes of the source that are not given here. Peptide text beside a SMILES is read from it.

How the values were obtained:
[1] = test system: breast cancer 4T1 cells; assay: Tumor weight and tumor inhibition in BALB/c mice bearing breast cancer 4T1 cells; conditions: for Tumor inhibition rate / Tumor weight (x ± s) / Tumor weight (g) (x ± s) / Tumor weight: intratumoral 150 μl/mouse every 3 days x3; for Intratumoral injection Tumor inhibition rate / Intratumoral injection Tumor weight: Table 10, avg tumor volume 336 mm^3, 150 μl/mouse every 3 days x3, 5th day after last dose;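 for all read-outs here: subcutaneous grafts in the right axilla, tumors excised and weighed after euthanasia, inhibition rate derived from group mean tumor weight versus the negative control group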
Protocol: In the following examples, unless otherwise specified, animal tests of subcutaneous transplantation tumors were performed in accordance with test guidelines issued by a drug administration authority. […] The subcutaneous transplantation was carried out according to a conventional method for subcutaneous inoculation of tumor cells. […] Items to be observed, measured and analyzed in the experiments included general status, body weight, food intake, tumor volume, tumor weight, thymus weight, spleen weight, and the like.
(§3) The tumor growth inhibition rate (abbreviated as tumor inhibition rate in the present invention) is calculated through the following equation:
(§4) wherein TW is an average tumor weight of a study group; CW is an average tumor weight of a negative control group.
The effects of the co-use of drugs (including efficacy and safety) can theoretically be based on the judgment of q:
q=actual combined effect/theoretical expected effect of simple addition.
When q=1, the actual combined effect meets the theoretical expectation, showing an additive effect; when q<1, the actual combined effect is weaker than the theoretical expectation, showing an antagonistic effect; and when q>1, the actual combined effect exceeds the theoretical expectation, showing a synergic effect. Unless otherwise specified, single-use efficacy of A or B (denoted as EA and EB respectively) and the actual combined efficacy of A/B (denoted as EA+B) are both tumor inhibition rates.
In one experiment, the test animal was a BALB/c mouse, the modeling cells were breast cancer 4T1 cells, and the transplantation tumor was modeled at 1×10^6 cells/mouse under the skin of the animal's right axilla. […] The experimental groups were divided into 1 negative control group (group 0) and 13 study groups (groups 1-13). They were all injected intratumorally. […] Each group was administered once every 3 days for a total of 3 times, each time at an injection dose of 150 μl//mouse. During the administration, general state of the animals and the degree of necrosis of normal tissues around the tumor after the administration were observed. On the 5th day after the administration was ended, the animals were euthanized, and the tumor weight was measured after anatomy to the animals. The tumor inhibition rate was calculated from the negative control group of each administration mode.
In another experiment, the test animal was a BALB/c mouse, the modeling cells were breast cancer 4T1 cells, and the transplantation tumor was modeled at 1×10^6 cells/mouse under the skin of the animal's right axilla. […] Each group was administered by intratumoral injection once every 3 days for a total of 3 times, each time at an injection dose of 150 μl/mouse. On the 5th day after the administration was ended, the animals were euthanized, and the tumor weight was measured after anatomy to the animals. The tumor inhibition rate was calculated from the negative control group.
In another experiment, the test animal was BALB/c mice, the modeling cells were breast cancer 4T1 cells, and the transplantation tumor was modeled at 1×10^6 cells/mouse under the skin of the animal's right axilla. […] Each group was administered by intratumoral injection once every 3 days for a total of 3 times, each time at an injection dose of 150 μl/mouse. On the 5th day after the administration was ended, the animals were euthanized, and the tumor weight was measured after anatomy to the animals. The tumor inhibition rate was calculated from the negative control group.
In another experiment, the test animal was a BALB/c mouse, the modeling cells were breast cancer 4T1 cells, and the transplantation tumor under the skin of the animal's right axilla was modeled at 1×10^6 cells/mouse.

[2] = pH of the drug composition; assay type: physicochemical; conditions: aqueous solution
[3] = test system: human prostate cancer cells (LNCaP/AR); assay: Tumor inhibition in nude mice bearing human prostate cancer cells (LNCaP/AR); conditions: Example 2; intratumoral 100 μl/mouse every 3 days x3; next day; avg tumor volume 91 mm^3
Protocol: as §3, §4
(§5) In the following experiments, the nude mice bearing human tumor cells and successfully modeled were randomly divided into 1 negative control group and 4 study groups (groups A, B, C, and D). The corresponding negative control was normal saline. The four study drugs were 20% arginine, 3% glutamic hydrochloride, 10% alanyl-glutamine, and 10% glutathione. Each group was injected intratumorally, once every 3 days, for a total of 3 times, each time with 100 μl/mouse. On the next day after the administration of drugs was ended, the animals were euthanized, the tumor weight was measured after anatomy, and the tumor inhibition rate was calculated from the respective negative control group.
In this research experiment, successfully modeled nude mice bearing human prostate cancer cells (LNCaP/AR) (with an average tumor volume of 91 mm^3) were randomly divided into a negative control group and 4 study groups (groups A, B, C, and D).
(§6) In this series of experiments, successfully modeled nude mice bearing human cancer cells were randomly divided into 1 negative control group and 5 study groups (groups A, B, C, D and E). […] Each group was injected intratumorally, once every 3 days, for a total of 3 times, each time with 150 μl/mouse. On the next day after the administration was ended, the animals were euthanized, the tumor weight was measured after anatomy, and the tumor inhibition rate was calculated from the respective negative control group.
(§7) In this series of experiments, successfully modeled nude mice bearing human cancer cells were randomly divided into 1 negative control group and 6 study groups (groups A, B, C, D, E and F). […] Each group was injected intratumorally, once every 3 days, for a total of 3 times, each time with 100 μl/mouse. On the next day after the administration was ended, the animals were euthanized, the tumor weight was measured after anatomy, and the tumor inhibition rate was calculated from the respective negative control group.
In this series of experiments, successfully modeled nude mice bearing human cancer cells were randomly divided into 1 negative control group and 3 study groups. […] Each group was injected intratumorally, once every 3 days, for a total of 3 times, each time with 150 μl/mouse. On the fifth day after the administration was ended, the animals were euthanized, the tumor weight was measured after anatomy, and the tumor inhibition rate was calculated from the respective negative control group.

[4] = test system: human stomach cancer cells (BGC823); assay: Tumor inhibition in nude mice bearing human stomach cancer cells (BGC823); conditions: Example 2; intratumoral 100 μl/mouse every 3 days x3; next day; avg tumor volume 85 mm^3
Protocol: as §3, §4
(§8) In the following experiments, the nude mice bearing human tumor cells and successfully modeled were randomly divided into 1 negative control group and 4 study groups (groups A, B, C, and D). The corresponding negative control was normal saline. […] Each group was injected intratumorally, once every 3 days, for a total of 3 times, each time with 100 μl/mouse. On the next day after the administration of drugs was ended, the animals were euthanized, the tumor weight was measured after anatomy, and the tumor inhibition rate was calculated from the respective negative control group.
In this research experiment, successfully modeled nude mice bearing human stomach cancer cells (BGC823) (with an average tumor volume of 85 mm^3) were randomly divided into a negative control group and 4 study groups (groups A, B, C, and D).

[5] = test system: human thyroid cancer cells (SW579); assay: Tumor inhibition in nude mice bearing human thyroid cancer cells (SW579); conditions: Example 2; intratumoral 100 μl/mouse every 3 days x3; next day; avg tumor volume 103 mm^3
Protocol: as §3, §4, §5, §6, §7
(§9) In this series of experiments, successfully modeled nude mice bearing human cancer cells were randomly divided into 1 negative control group and 3 study groups. […] Each group was injected intratumorally, once every 3 days, for a total of 3 times, each time with 150 μl/mouse.

[6] = test system: human liver cancer cells (HepG2); assay: Tumor weight and tumor inhibition in nude mice bearing HepG2; assay type: in vivo; conditions: for Intratumoral injection Tumor inhibition rate / Intratumoral injection Tumor weight / Tumor inhibition rate of intraperitoneal injection: 5th day after last dose; for Y(%) tumor inhibition rate: intratumoral every 3 days x3, <150 μl, fifth day
Protocol: (§1) One of the core characteristics of tumors is heterogeneity. […] The corresponding negative control was normal saline.
(§2) They were injected intraperitoneally and intratumorally.
The negative control group was given normal saline. The compositions of the study drug are as shown in the table below: 4 types and concentrations of amino acid based nutrient single drugs (X % amino acid based nutrients), 18 types and concentrations of ineffective absorption drugs (Y % ineffective absorption drugs), 24 compositions comprising various types and concentrations of amino acid based nutrients and ineffectively absorption drugs (X % amino acid based nutrients/Y % ineffectively absorption drugs).
The negative control was normal saline. The compositions of 16 study drugs, as shown in the table below, comprise: a 5-fluorouracil single drug of 4 varying concentrations (X % 5-fluorouracil), and an amino acid based nutrient with 5 varying concentrations (Y % amino acid based nutrient), 7 compositions consisting of 5-fluorouracil of varying concentrations and an amino acid based nutrient of varying concentrations (X % 5-fluorouracil/Y % amino acid based nutrient). […] The dose at each time was: 5-fluorouracil 50 mg/kg, glutathione ≤1 g/kg, and an injection volume was ≤150 μl/mouse.
The negative control was normal saline, the positive control was 1% 5-fluorouracil, and the study drug was 1% methylene blue/10% amino acid based nutrient composition (the type of the amino acid based nutrient is variable). The amino acid based nutrients in the compositions used in study groups 1-13 were: arginine, glycine, cysteine hydrochloride, valine, threonine, proline, histidine hydrochloride, phenylalanine, lysine, leucine, alanine, glutathione, serine, and the study drug used in the study group 14 was 1% methylene blue/5% arginine/5% glycine.

[7] = test system: human breast cancer cells (MDA-MB231); assay: Tumor inhibition in nude mice bearing human breast cancer cells (MDA-MB231); conditions: Example 2; intratumoral 100 μl/mouse every 3 days x3; next day; avg tumor volume 71 mm^3
Protocol: as §3, §4, §5
In this research experiment, successfully modeled nude mice bearing human breast cancer cells (MDA-MB231) (with an average tumor volume of 71 mm^3) were randomly divided into a negative control group and 4 study groups (groups A, B, C, and D).
Each group was injected intratumorally, once every 3 days, for a total of 3 times, each time with 150 μl/mouse. On the next day after the administration was ended, the animals were euthanized, the tumor weight was measured after anatomy, and the tumor inhibition rate was calculated from the respective negative control group.
Each group was injected intratumorally, once every 3 days, for a total of 3 times, each time with 100 μl/mouse. On the next day after the administration was ended, the animals were euthanized, the tumor weight was measured after anatomy, and the tumor inhibition rate was calculated from the respective negative control group.

[8] = test system: human head and neck cancer cells (Fμda); assay: Tumor inhibition in nude mice bearing human head and neck cancer cells (Fμda); assay type: in vivo; conditions: Example 2; intratumoral 100 μl/mouse every 3 days x3; next day; avg tumor volume 109 mm^3
Description: as §1

[9] = test system: human ovary cancer cells (PA1); assay: Tumor inhibition in nude mice bearing human ovary cancer cells (PA1); conditions: Example 2; intratumoral 100 μl/mouse every 3 days x3; next day; avg tumor volume 104 mm^3
Protocol: as §3, §4, §5, §6, §7, §9

[10] = test system: human nasopharynx cancer cells (CNE1); assay: Tumor inhibition in nude mice bearing human nasopharynx cancer cells (CNE1); conditions: Example 2; intratumoral 100 μl/mouse every 3 days x3; next day; avg tumor volume 78 mm^3
Protocol: as §3, §4, §8
In this research experiment, successfully modeled nude mice bearing human nasopharynx cancer cells (CNE1) (with an average tumor volume of 78 mm^3) were randomly divided into a negative control group and 4 study groups (groups A, B, C, and D).

[11] = test system: human lung cancer cells (A549); assay: Tumor inhibition in nude mice bearing human lung cancer cells (A549); conditions: Example 2; intratumoral 100 μl/mouse every 3 days x3; next day; avg tumor volume 83 mm^3
Protocol: as §3, §4, §8
In this research experiment, successfully modeled nude mice bearing human lung cancer cells (A549) (with an average tumor volume of 83 mm^3) were randomly divided into a negative control group and 4 study groups (groups A, B, C, and D).

[12] = test system: pancreatic cancer cells PANC-1; assay: Tumor inhibition in nude mice bearing pancreatic cancer cells PANC-1; assay type: in vivo; conditions: for Tumor inhibition rate of intraperitoneal injection / Tumor inhibition rate of intratumoral injection: Table 3, avg tumor volume 105 mm^3, 100 μl/mouse every 3 days x3, next day after last dose; for Tumor inhibition rate: Table 4, avg tumor volume 136 mm^3, intratumoral every 3 days x3, ≤150 μl, next day
Protocol: as §2
After anatomy, the tumor weight was measured and the tumor inhibition rate was calculated.

[13] = test system: HepG2; assay: Intratumoral tissue destruction, histological observation of HepG2 tumors; conditions: Table 7; intratumoral injection, once, ≤130 μl/mouse; next day; scale 0 = blank control, 5 = 5% acetic acid
Protocol: The negative control group was given normal saline, and the compositions and injection methods of the 5 study drugs are shown in the table below. […] Each group was administered once, with an injection dose of ≤130 μl/mouse. On the next day after the administration was ended, the animals were euthanized, and the tumor was dissected for histological observation.
The negative control groups were given normal saline, and the compositions and injection methods of the 5 study drugs are shown in the table below. […] Each group was administered once, with an injection dose of ≤130 μl/mouse. On the next day after the administration was ended, the animals were euthanized, and the tumor was dissected for histological observation.

[14] = test system: hyperthyroidism; assay: Hyperthyroidism model in rats (levothyroxine); conditions: first experiment, 25th day after administration, RIA
Protocol: Taking hyperthyroidism as a model, the model was built with levothyroxine (intraperitoneal injection, with a dose of 50 μg/100 g body weight, for consecutive 10 days). […] Administration was started on the day of grouping. The negative control was a normal saline spray, and the positive control was methimazole. […] Both the negative control group and the study group were injected once every 1 days in the swollen area, with 150 μl/mouse each time, for a total of 8 times.
The observed, measured and analyzed items in the experiment included serological examination and thyroid pathological examination on the day of administration and the 16th day after the administration, in addition to the regular food intake, body weight, and general state. The serological examination employed radioimmunoassay (RIA) to determine concentrations of serum T3, T4 and thyroid-stimulating hormone (TSH). The pathological examination observed thyroid morphology, follicular morphology, epithelial cell morphology, and interlobular fibrous tissue morphology.

[15] = Table 15, avg tumor volume 316 mm^3, 5th day
[16] = Table 13, avg tumor volume 307 mm^3, 5th day
[17] = Table 12, avg tumor volume 317 mm^3, 5th day
[18] = Table 14, avg tumor volume 325 mm^3, 5th day
[19] = Example 2, intratumoral 100 μl/mouse every 3 days x3, next day, avg tumor volume 81 mm^3
[20] = Table 8, avg tumor volume 175 mm^3, ≤150 μl/mouse every 3 days x3
[21] = Table 11, avg tumor volume 164 mm^3, intratumoral every 3 days x3, ≤150 μl, fifth day after last dose
[22] = Table 16, avg tumor volume 169 mm^3, intratumoral every 3 days x3, ≤150 μl/mouse, 5th day
[23] = Table 17, avg tumor volume 317 mm^3, fifth day
[24] = Table 6, avg tumor volume 153 mm^3, ≤120 μl/mouse every 3 days x3

## O=C([O-])O.[Na+] [4% sodium bicarbonate, sodium bicarbonate]
[1]; [15]
  Tumor inhibition rate: 23%
  Tumor weight (x ± s): 1.68 ± 0.27 g
[2]; Table 15
  Drug pH: 6.9

## O=C([O-])O.[Na+] [2% sodium bicarbonate, sodium bicarbonate]
[1]; [16]
  Tumor inhibition rate: 7%
  Tumor weight (g) (x ± s): 2.10 ± 0.25 g
[2]; Table 13
  Drug pH: 6.9

## O=C([O-])[O-].[Na+].[Na+] [7% sodium carbonate, sodium carbonate]
[1]; [16]
  Tumor inhibition rate: 20%
  Tumor weight (g) (x ± s): 1.81 ± 0.21 g
[2]; Table 13
  Drug pH: 10.8

## [Na+].[OH-] [1% NaOH, sodium hydroxide]
[1]
  Intratumoral injection Tumor inhibition rate: 41%
  Intratumoral injection Tumor weight: 0.76 ± 0.24 g
[1]; [17]
  Tumor inhibition rate: 41%
  Tumor weight (x ± s): 1.39 g
[1]; [18]
  Tumor inhibition rate: 42%
  Tumor weight (x ± s): 1.41 ± 0.23 g
[2]; Table 14
  Drug pH: 11.8

## N=C(N)NCCC[C@H](N)C(=O)O [20% arginine, L-arginine]
[3]
  Tumor inhibition rate: 55%
[4]
  Tumor inhibition rate: 52%
[5]
  Tumor inhibition rate: 62%
[6]; [19]
  Tumor inhibition rate: 63%
[6]; [20]
  Intratumoral injection Tumor inhibition rate: 61%
  Intratumoral injection Tumor weight: 0.99 ± 0.21 g
  Tumor inhibition rate of intraperitoneal injection: 5%
[6]; [21]
  Tumor inhibition rate: (60%)
[6]; [22]
  Tumor inhibition rate: (61%)**
[7]
  Tumor inhibition rate: 55%
[8]
  Tumor inhibition rate: 56%
[9]
  Tumor inhibition rate: 56%
[1]
  Intratumoral injection Tumor inhibition rate: 33%
  Intratumoral injection Tumor weight: 0.86 ± 0.23 g
[1]; [17]
  Tumor inhibition rate: 27%
  Tumor weight (x ± s): 1.72 g
[1]; [18]
  Tumor inhibition rate: 28%
  Tumor weight (x ± s): 1.75 ± 0.29 g
[1]; [23]
  Tumor inhibition rate: 34%
  Tumor weight: 1.03 ± 0.29 g
[2]; Table 14
  Drug pH: 10.8
[10]
  Tumor inhibition rate: 63%
[11]
  Tumor inhibition rate: 53%
[12]
  Tumor inhibition rate of intraperitoneal injection: 56%
  Tumor inhibition rate of intratumoral injection: 5%
  Tumor inhibition rate: 61%

## O=C([O-])O.[Na+] [5% sodium bicarbonate, sodium bicarbonate]
[1]; [16]
  Tumor inhibition rate: 21%
  Tumor weight (g) (x ± s): 1.79 ± 0.24 g
[2]; Table 13
  Drug pH: 6.9

## Cl.N[C@@H](CCC(=O)O)C(=O)O [3% glutamic hydrochloride, L-glutamic hydrochloride]
[3]
  Tumor inhibition rate: 59%
[4]
  Tumor inhibition rate: 57%
[5]
  Tumor inhibition rate: 63%
[6]; [19]
  Tumor inhibition rate: 62%
[6]; [22]
  Tumor inhibition rate: (70%)
[7]
  Tumor inhibition rate: 61%
[8]
  Tumor inhibition rate: 58%
[9]
  Tumor inhibition rate: 61%
[10]
  Tumor inhibition rate: 68%
[11]
  Tumor inhibition rate: 57%
[12]
  Tumor inhibition rate of intraperitoneal injection: 68%
  Tumor inhibition rate of intratumoral injection: 5%
[12]; hydrochloride
  Tumor inhibition rate: 69%

## N=C(N)NCCC[C@H](N)C(=O)O [15% arginine, L-arginine]
[1]
  Intratumoral injection Tumor inhibition rate: 28%
  Intratumoral injection Tumor weight: 0.92 ± 0.26 g
[1]; [16]
  Tumor inhibition rate: 23%
  Tumor weight (g) (x ± s): 1.74 ± 0.28 g
[2]; Table 13
  Drug pH: 11.0

## CC(=O)O [15% acetic acid, acetic acid]
[1]; [15]
  Tumor inhibition rate: 68%
  Tumor weight (x ± s): 0.70 ± 0.18 g
[2]; Table 15
  Drug pH: 2.5

## CC(=O)O [5% acetic acid, acetic acid, reference compound]
[13]
  Intratumoral tissue destruction: 5
[6]; [21]
  Tumor inhibition rate: (71%)

## C[C@H](N)C(=O)N[C@@H](CCC(N)=O)C(=O)O [10% ALA-GLN, Alanyl-glutamine dipeptide] (H-Ala-Gln-OH)
[3]
  Tumor inhibition rate: 61%
[4]
  Tumor inhibition rate: 51%
[5]
  Tumor inhibition rate: 59%
[6]; [19]
  Tumor inhibition rate: 56%
[7]
  Tumor inhibition rate: 57%
[8]
  Tumor inhibition rate: 51%
[9]
  Tumor inhibition rate: 62%
[10]
  Tumor inhibition rate: 63%
[11]
  Tumor inhibition rate: 52%
[12]
  Tumor inhibition rate of intraperitoneal injection: 53%
  Tumor inhibition rate of intratumoral injection: 2%

## O=C([O-])[O-].[Na+].[Na+] [14% sodium carbonate, sodium carbonate]
[1]; [16]
  Tumor inhibition rate: 35%
  Tumor weight (g) (x ± s): 1.47 ± 0.24 g
[2]; Table 13
  Drug pH: 10.8

## O=C([O-])[O-].[Na+].[Na+] [2.8% sodium carbonate, sodium carbonate]
[1]; [16]
  Tumor inhibition rate: 7%
  Tumor weight (g) (x ± s): 2.10 ± 0.27 g
[2]; Table 13
  Drug pH: 10.9

## NCC(=O)O [15% glycine, Glycine]
[1]; [15]
  Tumor inhibition rate: 17%
  Tumor weight (x ± s): 1.81 ± 0.26 g
[2]; Table 15
  Drug pH: 6.8

## O=C([O-])O.[Na+] [10% sodium bicarbonate, sodium bicarbonate]
[1]; [16]
  Tumor inhibition rate: 30%
  Tumor weight (g) (x ± s): 1.58 ± 0.22 g
[2]; Table 13
  Drug pH: 6.8

## Cn1cc[nH]c1=S [Thiamazole, methimazole]
[14]; negative control 1.9±0.1, blank 0.8±0.1
  serum T3: 1.1±0.1
[14]; negative control 171.2±9.3, blank 39.6±3.1
  serum T4: 66.3±3.6

## O=c1[nH]cc(F)c(=O)[nH]1 [1% 5-fluorouracil, 5-fluorouracil]
[6]; [24]
  Intratumoral injection Tumor inhibition rate: 66%
  Intratumoral injection Tumor weight: 0.78 ± 0.21 g
  Tumor inhibition rate of intraperitoneal injection: 59%
[6]; [20]
  Intratumoral injection Tumor inhibition rate: 67%
  Intratumoral injection Tumor weight: 0.84 ± 0.25 g
  Tumor inhibition rate of intraperitoneal injection: 58%
[6]; [22]
  Tumor inhibition rate: (66%)
[6]; Table 18, avg tumor volume 186 mm^3
  Y(%) tumor inhibition rate: 61%
[6]; Table 19, avg tumor volume 172 mm^3
  Y(%) tumor inhibition rate: 63%
[1]
  Intratumoral injection Tumor inhibition rate: 51%
  Intratumoral injection Tumor weight: 0.63 ± 0.21 g
[1]; [23]
  Tumor inhibition rate: 53%
  Tumor weight: 0.73 ± 0.21 g
[12]
  Tumor inhibition rate of intraperitoneal injection: 63%
  Tumor inhibition rate of intratumoral injection: 59%
